The record followed here is PubChem BioAssay (NCI).

Test systems include MALME-3M melanoma; HCT-116 colon; OVCAR-3 ovarian; SN12C renal; CCRF-CEM leukemia; OVCAR-8 ovarian; SK-OV-3 ovarian; HCT-15 colon; SF-295 CNS; TK-10 renal; A549 NSCLC; SF-268 CNS; SR leukemia.
Assay in all cases: NCI tumour cell line growth inhibition, 48 h

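The compound was tested at five concentrations on cells cultured in 96-well plates, with a 48-hour exposure period. At the TGI there is no net growth.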

With `CC1=CCC2C3(C)CCC2(C(C)C)C1C3` (stereo not drawn) (tested in a mixture with another compound), the TGI in the assay with MALME-3M melanoma is above 100 µM; in the assay with HCT-116 colon it was above 100 µM; with OVCAR-3 ovarian it was 30.2 µM; in the assay on SN12C renal it was 36.2 µM; with CCRF-CEM leukemia it was 56.9 µM; in the assay with OVCAR-8 ovarian it was 33.2 µM. In addition, the TGI in the assay on SK-OV-3 ovarian is above 100 µM; in the assay on HCT-15 colon, 33.3 µM; with SF-295 CNS, 40.3 µM; with TK-10 renal it was 78.7 µM; in the assay with A549 NSCLC, 39 µM; in the assay with SF-268 CNS, 36.1 µM.

For the compound `Cc1c2c(n(CCc3ccccc3)c1C)N(C)N=C(C#N)S2(=O)=O`, the TGI in the assay on HCT-116 colon, with OVCAR-3 ovarian, in the assay with SR leukemia, in the assay with SN12C renal, in the assay on OVCAR-8 ovarian and in the assay on SK-OV-3 ovarian was above 100 µM in each case. The TGI in the assay with HCT-15 colon, with SF-295 CNS, in the assay with TK-10 renal, with A549 NSCLC and in the assay with SF-268 CNS was above 100 µM throughout.

For the compound `O=C(/C=C1\C[C@H]2C=Nc3ccccc3C(=O)N2C1)NCCCCNC(=O)/C=C1\C[C@H]2C=Nc3ccccc3C(=O)N2C1`, the TGI was 18 µM in the assay on MALME-3M melanoma; 25.9 µM in the assay on HCT-116 colon; 36.3 µM in the assay on OVCAR-3 ovarian; 11.4 µM in the assay with SN12C renal; 4.82 µM with CCRF-CEM leukemia; 9.76 µM with OVCAR-8 ovarian. For the same compound, the TGI in the assay on SK-OV-3 ovarian was 34.4 µM; in the assay on HCT-15 colon, 27.7 µM; in the assay on SF-295 CNS, 35.4 µM; in the assay with TK-10 renal it was 23.8 µM; with A549 NSCLC, 49.1 µM; with SF-268 CNS, 25 µM.

For `Cc1ccc(N=N/C(=N/NC(=O)c2cc(Cl)ccc2C(=O)c2ccccc2)c2ccc(N(CCC#N)CCC#N)cc2C)cc1`, the TGI in the assay with MALME-3M melanoma was 32.4 µM; in the assay with HCT-116 colon, 31.5 µM; in the assay on OVCAR-3 ovarian it was 16.4 µM; in the assay on SN12C renal, 87.7 µM; in the assay with CCRF-CEM leukemia, 13.1 µM; in the assay with OVCAR-8 ovarian it was 29.9 µM. Moreover, the TGI was 40 µM in the assay with SK-OV-3 ovarian; 57.8 µM in the assay with HCT-15 colon; 86.9 µM in the assay with SF-295 CNS; above 100 µM in the assay with TK-10 renal; 58.7 µM in the assay with A549 NSCLC; above 100 µM with SF-268 CNS.

Regarding `CCN(CC)CCN1C(=O)c2c(c(-c3ccccc3)c3ccccc3c2-c2ccccc2)C1=O`, the TGI in the assay on MALME-3M melanoma, in the assay with HCT-116 colon, in the assay on SN12C renal, in the assay with CCRF-CEM leukemia, in the assay with OVCAR-8 ovarian and in the assay on SK-OV-3 ovarian was above 100 µM each time. Also, the TGI in the assay with HCT-15 colon, in the assay on SF-295 CNS, in the assay on TK-10 renal, in the assay with A549 NSCLC and with SF-268 CNS was above 100 µM each time.

For the compound `CCOC(=O)c1c(C)cc(=O)n2c1[nH]c1ccccc12`, the TGI with MALME-3M melanoma, with HCT-116 colon, in the assay on OVCAR-3 ovarian, with SN12C renal, in the assay with CCRF-CEM leukemia and in the assay with OVCAR-8 ovarian was above 100 µM in each case. In addition, the TGI in the assay on SK-OV-3 ovarian, in the assay with HCT-15 colon, in the assay with SF-295 CNS, with TK-10 renal and in the assay on A549 NSCLC was above 100 µM in each case.

In the case of `Cc1nc(C(N)=S)sc1C(/C=C/c1ccc(Cl)c(Cl)c1)=N/NC(C)(C)C`, the TGI with HCT-116 colon, with SN12C renal, in the assay with CCRF-CEM leukemia, with OVCAR-8 ovarian, with SK-OV-3 ovarian and in the assay on HCT-15 colon was above 100 µM throughout. The TGI in the assay with SF-295 CNS, in the assay on TK-10 renal, in the assay with A549 NSCLC and in the assay with SF-268 CNS was above 100 µM in each case.

Regarding `CCOC(=O)Cc1csc2[n+]1C(=O)/C(=C\c1cccc(Cl)c1Cl)S2`, the TGI was 25.7 µM in the assay on HCT-116 colon; 42.1 µM with OVCAR-3 ovarian; 37.8 µM with SN12C renal; 37.8 µM in the assay on CCRF-CEM leukemia; 35.9 µM in the assay on OVCAR-8 ovarian; 43.1 µM with SK-OV-3 ovarian. Besides, the TGI in the assay with HCT-15 colon was found to be 31.9 µM; in the assay on SF-295 CNS, 46.5 µM; with TK-10 renal, 55.6 µM; with A549 NSCLC it was 35.8 µM; with SF-268 CNS it was 80.2 µM.

As for `C=C(C)CC1(O)C(=O)C(OCC)=C1OCC` (stereo not drawn), the TGI with MALME-3M melanoma, in the assay on HCT-116 colon, in the assay with OVCAR-3 ovarian, in the assay on SN12C renal, in the assay on CCRF-CEM leukemia and with OVCAR-8 ovarian was above 100 µM each time. In addition, the TGI with SK-OV-3 ovarian, in the assay on HCT-15 colon, with SF-295 CNS, in the assay with TK-10 renal, in the assay with A549 NSCLC and with SF-268 CNS was above 100 µM each time.

For the compound `O=C(Cc1csc(N=Nc2c(O)[nH]c3ccccc23)n1)Nc1ccccc1`, the TGI in the assay on HCT-116 colon was 50.8 µM; in the assay on OVCAR-3 ovarian, 93.3 µM; in the assay with SN12C renal it was above 100 µM; in the assay on OVCAR-8 ovarian, 65.8 µM; in the assay on SK-OV-3 ovarian, above 100 µM; in the assay with HCT-15 colon it was above 100 µM. For the same compound, the TGI in the assay on SF-295 CNS was above 100 µM; with TK-10 renal it was above 100 µM; with A549 NSCLC, above 100 µM; in the assay on SF-268 CNS it was 41.4 µM.

In the case of `CC1(C)CC23CC(C)(C)c4cccc(c42)OCc2ccc4ccc5ccc(nc5c4n2)COc2cccc1c23`, the TGI with HCT-116 colon, with OVCAR-3 ovarian, in the assay on SR leukemia, in the assay on SN12C renal, in the assay with OVCAR-8 ovarian and with SK-OV-3 ovarian was above 50 µM each time. For the same compound, the TGI with HCT-15 colon, with SF-295 CNS, in the assay with TK-10 renal, with A549 NSCLC and in the assay with SF-268 CNS was above 50 µM each time.
